Laboratory results from ChEMBL document CHEMBL4811216, “Chemotherapy for human schistosomiasis: how far have we come? What's new? Where do we go from here?” (RSC Med Chem, 2020).
pIC50: −log10 of the molar value.

Assays:
Schistosoma mansoni [1] = experiment: Antischistosomal activity against Schistosoma mansoni assessed as worm mortality at 5 ug/ml incubated for 5 days by stereomicroscopic method relative to control; assay type: functional; details: 120 h, time 5 day
Schistosoma mansoni [2] = experiment: Antischistosomal activity against Schistosoma mansoni Puerto-Rican assessed as worm mortality incubated for 5 days by stereomicroscopic method; assay type: functional, organism-based; details: 120 h; for IC90: time 5 day
Schistosoma mansoni [3] = experiment: Antischistosomal activity against Schistosoma mansoni Egyptian assessed as worm mortality incubated for 5 days by stereomicroscopic method; assay type: functional, organism-based; details: 120 h; for IC90: time 5 day
Schistosoma mansoni [4] = experiment: Antischistosomal activity against Schistosoma mansoni Puerto Rican schistosomula assessed as effect on worm phenotype measured after 72 hrs; assay type: functional, organism-based
Schistosoma mansoni [5] = experiment: Antischistosomal activity against Schistosoma mansoni Puerto Rican schistosomula assessed as effect on worm motility measured after 72 hrs; assay type: functional, organism-based
[6] = Cytotoxicity against Biomphalaria alexandrina incubated for 24 hrs
[7] = Cytotoxicity against Biomphalaria alexandrina incubated for 24 hrs relative to control; parameters: concentration or dose not given beside the values
Schistosoma mansoni [8] = experiment: Antischistosomal activity against Schistosoma mansoni infected in NMRI mouse assessed as worm burden reduction at 200 mg/kg, po administered as single dose and measured after 17 to 21 days relative to control; assay type: functional, organism-based; parameters: scale not given: the % may be the effect or the level left; details: time 17-21 day
Schistosoma haematobium = experiment: Antischistosomal activity against Schistosoma haematobium at 10 uM measured after 72 hrs relative to control; assay type: functional
Schistosoma mansoni [9] = experiment: microbe, parasite or virus in culture; details: Liberian, 72 h
Description: Antischistosomal activity against Schistosoma mansoni Liberian NTS incubated for 72 hrs by microscopic method

Schistosoma mansoni [10] = experiment: microbe, parasite or virus in culture; details: 72 h
Description: Antischistosomal activity against Schistosoma mansoni incubated for 72 hrs by inverted microscopic method

[11] = molecular target: HDAC1 (histone deacetylase 1) (Homo sapiens, UniProt Q13547); experiment: Inhibition of human HDAC1 using Z-Lys(Ac)-AMC as substrate at 1 uM by fluorimetric method relative to control; details: HDAC1 enzyme, probe Z-Lys(Ac)-AMC
Sequence of HDAC1 (histone deacetylase 1) (Q13547 whole entry): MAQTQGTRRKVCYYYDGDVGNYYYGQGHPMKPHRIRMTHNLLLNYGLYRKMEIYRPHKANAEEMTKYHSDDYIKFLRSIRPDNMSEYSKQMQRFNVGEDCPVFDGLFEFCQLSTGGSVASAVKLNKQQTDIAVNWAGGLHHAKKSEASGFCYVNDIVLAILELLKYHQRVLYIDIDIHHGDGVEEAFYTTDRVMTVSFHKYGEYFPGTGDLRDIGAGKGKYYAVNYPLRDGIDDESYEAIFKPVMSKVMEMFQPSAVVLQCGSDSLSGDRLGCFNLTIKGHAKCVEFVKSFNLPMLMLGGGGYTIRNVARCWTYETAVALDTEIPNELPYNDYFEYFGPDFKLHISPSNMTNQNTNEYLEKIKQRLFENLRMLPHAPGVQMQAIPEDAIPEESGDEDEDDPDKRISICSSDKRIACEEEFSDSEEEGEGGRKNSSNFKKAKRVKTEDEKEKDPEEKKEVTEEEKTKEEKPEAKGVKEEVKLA

Schistosoma mansoni [12] = experiment: Antischistosomal activity against Schistosoma mansoni infected in NMRI mouse assessed as worm burden reduction at 400 mg/kg, po administered […] for 4 consecutive days and measured after 14 days relative to control; assay type: functional; parameters: scale not given: the % may be the effect or the level left; details: time 14 day

Row | Compound | mortality at 5 µg/mL (Schistosoma mansoni [1]) [%] | pIC50 (Schistosoma mansoni [2]) | IC90 (Schistosoma mansoni [2]) [µM] | pIC50 (Schistosoma mansoni [3]) | IC90 (Schistosoma mansoni [3]) [µM] | LC50 [6] [µM] | LC90 [6] [µM] | mortality [7] [%] | other results
1 | CCN(CC)CCCC(C)Nc1c2c3ccccc3nc-2n(C)c2ccc(Cl)cc12 (configuration not stated) | 100 | 4.82 | 21.7 | 4.93 | 16.8 | – | – | – | –
2 | CC1(C)CCC[C@]2(C)C(CC[C@@](C)(O)/C=C/c3cccc(Cl)c3)[C@](C)(O)CC[C@@H]12 (some centres not stated) | – | – | – | – | – | – | – | – | pIC50 (Schistosoma mansoni [4]): > 5.00; pIC50 (Schistosoma mansoni [5]): > 5.00
3 | CN(C)CCNc1c2c3ccccc3nc-2n(C)c2ccc(Cl)cc12 | 100 | 5.23 | 13 | 5.43 | 7.65 | 1.47 | 2.12 | 100 | –
4 | CCN(CC)CCCC(C)Nc1c2c3ccccc3nc-2n(C)c2cc(Cl)ccc12 (configuration not stated) | 100 | 4.53 | 32.8 | 4.72 | 24.3 | – | – | – | –
5 | C=C[C@](C)(O)CCC1[C@](C)(O)CC[C@H]2C(C)(C)CCC[C@]12C (some centres not stated) | – | – | – | – | – | – | – | – | pIC50 (Schistosoma mansoni [4]): 4.85; pIC50 (Schistosoma mansoni [5]): 4.91
6 | Cn1c2nc3ccccc3c-2c(NCCN2CCOCC2)c2cc(Cl)ccc21 | 100 | 5.45 | 6.83 | 5.90 | 4.05 | 1.3 | 2.2 | 100 | –
7 | Clc1ccc2nc3[nH]c4ccccc4c3c(NCCN3CCOCC3)c2c1 | 100 | 5.12 | 11 | 5.47 | 6.3 | – | – | – | –
8 | CC1(C)CCC[C@]2(C)C(CC[C@@](C)(O)/C=C/c3ccc(Cl)cc3)[C@](C)(O)CC[C@@H]12 (some centres not stated) | – | – | – | – | – | – | – | – | pIC50 (Schistosoma mansoni [4]): > 5.00; pIC50 (Schistosoma mansoni [5]): > 5.00
9 | Cn1c2nc3ccccc3c-2c(NCCN2CCCC2)c2cc(Cl)ccc21 | – | – | – | – | – | 1.74 | 2.64 | 100 | –
10 | O=C(Nc1ccc(N2CCNCC2)cc1)c1ccn2ncc(-c3cccc(Cl)c3)c2n1 | – | – | – | – | – | – | – | – | Activity (Schistosoma mansoni [8]): 70.7%; Activity (Schistosoma haematobium): 100%; pIC50 (Schistosoma mansoni [9]): 6.22; pIC50 (Schistosoma mansoni [10]): 5.70
11 | CN1CCC(NCc2cccc(-c3ccc(S(=O)(=O)NCc4ccccc4)cc3)c2)CC1 | – | – | – | – | – | – | – | – | Activity (Schistosoma mansoni [8]): 67.8%; Activity (Schistosoma haematobium): 75.4%; pIC50 (Schistosoma mansoni [9]): 5.59; pIC50 (Schistosoma mansoni [10]): 5.52
12 | CN1CCN(c2c3cc(Cl)ccc3nc3[nH]c4ccccc4c23)CC1 | 100 | 5.20 | 17.9 | 5.27 | 13.7 | 0.63 | 0.91 | 100 | –
13 | Cn1c2nc3ccccc3c-2c(N2CCC(N3CCCCC3)CC2)c2cc(Cl)ccc21 | 100 | 5.11 | 13.4 | 5.46 | 8.31 | 2.6 | 3.5 | 100 | –
14 | O=C(NO)c1cccc(C(=O)NNc2ccccc2)c1 | – | – | – | – | – | – | – | – | inhibition at 1 µM [11]: < 10%
15 | O=C(NO)c1cccc(C(=O)NOCc2ccc(F)c(F)c2)c1 | – | – | – | – | – | – | – | – | inhibition at 1 µM [11]: < 10%
16 | Cn1c2nc3ccccc3c-2c(N2CCN(CCO)CC2)c2cc(Cl)ccc21 | 100 | 5.48 | 5.57 | 5.75 | 4.55 | 3.9 | 4.8 | 100 | –
17 | CC1(C)CCC[C@]2(C)C(CC[C@@](C)(O)/C=C/c3ccccc3)[C@](C)(O)CC[C@@H]12 (some centres not stated) | – | – | – | – | – | – | – | – | pIC50 (Schistosoma mansoni [4]): > 5.00; pIC50 (Schistosoma mansoni [5]): > 5.00
18 | O=C(Nc1ccc(Cl)c(Cl)c1)Nc1ccc(Cl)c(Cl)c1 | – | – | – | – | – | – | – | – | pIC50 (Schistosoma mansoni [9]): 5.33; Activity (Schistosoma mansoni [12]): 52.5%
19 | CCN1CCCC1CNc1c2c3ccccc3nc-2n(C)c2ccc(Cl)cc12 (configuration not stated) | – | – | – | – | – | 2.95 | 4.1 | 100 | –
20 | Cc1ccc(CONC(=O)c2cccc(C(=O)NO)c2)cc1 | – | – | – | – | – | – | – | – | inhibition at 1 µM [11]: < 10%
21 | O=C(NO)c1cccc(C(=O)NOCCc2ccccc2)c1 | – | – | – | – | – | – | – | – | inhibition at 1 µM [11]: < 10%
22 | CS(=O)(=O)c1ccc(C(=O)N(CC2CCCO2)c2nc3ccccc3s2)cc1[N+](=O)[O-] (configuration not stated) | – | – | – | – | – | – | – | – | Activity (Schistosoma mansoni [8]): 55.2%; Activity (Schistosoma haematobium): 90.8%; pIC50 (Schistosoma mansoni [9]): 6.40; pIC50 (Schistosoma mansoni [10]): 5.43
